Results on one compound are retold here after patent US8258182B2, “Substituted 1,3-diphenylpropane derivatives, preparations and uses thereof” (Genfit, priority 2006, dated 2012).

The test system of assay [1] is PPARs target genes (PDK4, ApoCIII, ACO) in the hepatic tissue. Nature of the assay: Hepatic expression of PPAR target genes in E2/E2 mice (quantitative RT-PCR). In kind it is in vivo, mouse. As to conditions: 50 mpk. On the procedure: The effectiveness of the compounds according to the invention is also evaluated by measuring, in the hepatic tissue, the expression of genes involved in lipid and/or glucids metabolism and in energy dissipation. Each level of genes expression is normalised regarding the expression level of the reference gene 36B4's. The induction factor, i.e. the ratio between the relative signal (induced by the compound according to the invention) and the average of the relative values relating to the control group is then calculated. The higher the induction factor is, the more the compound promotes hepatic gene expression. The final result is expressed as an average of the induction values obtained with each experimental group.
The PPARα agonist properties previously measured in vitro should, in the liver, lead to an overexpression of the target genes directly under the control of the PPARα: the genes we have studied in this experiment are PDK-4 (an enzyme involved in glucid metabolism), Apo CIII (an apolipoprotein involved in lipid metabolism), and Acox1 (in mice, Acox1 corresponds to the ACO gene in humans (Acyl Co-enzymeA Oxydase, an enzyme key to the fatty acid β-oxidation mechanism)). Measuring the transcriptional activity of PPARα target genes after a treatment with compounds according to the invention does therefore allow to evaluate the hypolipidemic properties of the compounds according to the invention.
The ApoE2/E2 transgenic mice were kept on a 12 hour/12 hour light/dark cycle at a constant temperature of 20±3° C. After a one week acclimatization period, the mice were weighed and divided into groups of 6 animals selected so as to render uniform the distribution of their body weights and plasma lipid rates, determined before the experiment. The tested compounds were suspended in carboxymethylcellulose (Sigma C4888) and administered by intra-gastric tube feeding once a day for 8 days (for compound 1) or 14 days (for compound 8) with the chosen doses. The animals had free access to food and water (standard diet). Taking of food and weight gain are recorded throughout the experiment. At the end of the experiment, the animals were anesthetized after a 4 hour fast, and a blood sample was taken using (EDTA) anticoagulant, then the mice were weighed and euthanized. The plasma was separated by centrifugation at 3000 rotations/minute for 20 minutes. The samples were kept at +4° C.
Liver samples were removed, frozen in liquid nitrogen, and kept at −80° C. for later analyses.
Total RNA is extracted from liver fragments by using the NucleoSpin® 96 RNA kit (Macherey Nagel, Hoerdt, France) according to the manufacturer's instructions.
1 μg of total RNA (quantified by using the Ribogreen RNA quantification kit (Molecular Probes)) is then reverse-transcripted into complementary DNA by means of a 1 hour reaction at 37° C. in a total volume of 20 μl containing a 1× buffer (Sigma), 1.5 mM of DTT, 0.18 mM of dNTPs (Promega), 200 ng of pdN6 (Amersham), 30U of RNase inhibitor (Sigma), and 1 μl of MMLV-RT (Sigma).
The PCR quantitative experiments were carried out using the MyiQ Single-Color Real-Time PCR Detection System (Biorad, Marnes-la-Coquette, France) and were performed using the iQ SYBR Green Supermix kit according to the manufacturer's recommendations, in 96-well trays in 5 μl of a diluted reverse transcription solution at a hybridation temperature of 55° C. The specific primer pairs of the genes studied were used: • PDK4: sense primer: 5′-[…]-3′ (SEQ ID NO: 1) and antisense primer 5′-[…]-3′ (SEQ ID NO: 2)) • ApoCIII: sense primer: 5′-[…]-3′ (SEQ ID NO: 3) and antisense primer 5′-[…]-3′ (SEQ ID NO: 4). • ACO: sense primer: 5′-[…]-3′ (SEQ ID NO: 5) and antisense primer: 5′-[…]-3′ (SEQ ID NO: 6)
The quantity of fluorescencet emitted is directly proportional to the quantity of cDNA present at the beginning of the reaction and amplified during the PCR. […]

The subject of the next assay is ApoE2/E2 mice. As to the kind of experiment: Plasma lipids in dyslipidemic ApoE2/E2 mice after per os treatment. It is filed as in vivo, mouse. Conditions: 50 mpk per os, 8 days. On the procedure: The dyslipidemic E2/E2 mouse's rates of total cholesterol, of triglycerides, and plasma free fatty acids are measured after 8 or 14 days of a per os treatment with the compounds according to the invention.
The hypolipidemic properties of the compounds according to the invention are evaluated in vivo by assaying plasma lipids and the analysis of the PPARs target genes expression in the liver after a treatment treating of the dyslipidemic E2/E2 mice with the compounds according to the invention.
The murine model used is the ApoE2/E2 mouse, a transgenic mouse having the human apolipoprotein E isoform E2 (Sullivan P M et al., 1998). In human, this apolipoprotein, a constituent of low and very low density lipoproteins (LDL-VLDL), is present in three isoforms E2, E3, and E4. The E2 form presents a mutation affecting the amino acid in position 158, which considerably weakens the affinity of this protein for LDL receptors. Accordingly, the VLDL clearance is nearly non-existent. An accumulation of low-density lipoproteins then occurs along with a mixed hyperlipidemia known as type III (elevated cholesterol and triglycerides).
The ApoE2/E2 transgenic mice were kept on a 12 hour/12 hour light/dark cycle at a constant temperature of 20±3° C. After a one week acclimatization period, the mice were weighed and divided into groups of 6 animals selected so as to render uniform the distribution of their body weights and plasma lipid rates, determined before the experiment. The tested compounds were suspended in carboxymethylcellulose (Sigma C4888) and administered by intra-gastric tube feeding once a day for 8 days (for compound 1) or 14 days (for compound 8) with the chosen doses. […] Taking of food and weight gain are recorded throughout the experiment. […]
Plasma lipid concentrations (total cholesterol and triglycerides) are measured by enzymatic doses (bioMérieux-Lyon-France) according to the provider's recommendations.
Plasma cholesterol and triglycerides rates are measured after 8 or 14 days of a per os treatment with the compounds according to the invention. […]

For the compound `CSc1ccc(C(=O)CCc2cc(C)c(OC(C)(C)C(=O)O)c(C)c2)cc1` [Compound 1, 2-[2,6-dimethyl-4-[3-[4-(methylthio)phenyl]-3-oxo-propyl]phenoxyl]-2-methylpropanoic acid], in assay [1] (8 days (FIG. 2-4)), the “hepatic expression of the gene coding for PDK4” value was “significant increase”. Moreover, in assay [1] (8 days (FIG. 2-5)), the “hepatic expression of the gene coding for ApoCIII” value was “reduction”. Besides, in assay [1] (8 days (FIG. 2-6)), the “hepatic expression of genes coding for ACO” value is listed as “significant augmentation”. In the assay on ApoE2/E2 mice (vs control animals (FIG. 2-1)), the “plasma total cholesterol rates” value was “very significantly decreased”. Moreover, the circulating triglycerides rates entry in the assay with ApoE2/E2 mice (vs control animals (FIG. 2-2)) was “very significantly decreased”.
